Four compounds from PubChem BioAssay (NCI) can be followed below.

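These data come from cells grown in 96-well plates and exposed to compound for 48 hours at five concentrations. The concentration for full growth arrest is given as TGI.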

The test system of the first assay is DLD-1 colon. The experiment in a line: growth of human tumour cells (NCI), 48 h.
For the compound `S=c1[nH]c(=S)c2nnn(-c3ccccc3)c2[nH]1`, the TGI is over 100 µM.
On the same count and under the same terms, to `CNS(=O)(=O)NNS(=O)(=O)c1ccc(Br)cc1` belongs over 100 µM.
On to `CCC1CCc2c(c(=O)oc3c2cc(OC)c2cccc(OC)c23)C1` (stereo not given), for which the TGI was over 100 µM.

Another assay has as its system DMS 114 small cell lung. The experiment in a line: growth of human tumour cells (NCI), 48 h.
`S=c1[nH]c(=S)c2nnn(-c3ccccc3)c2[nH]1` gave a TGI of over 100 µM.
In turn, `CNS(=O)(=O)NNS(=O)(=O)c1ccc(Br)cc1` registered a TGI of over 100 µM.
The same measure, in the same setting: the same measure for `Cc1ccc(NC(=O)CSc2nnc(-c3ccc(N=Cc4ccc(Cl)cc4)cc3)o2)cc1`: over 100 µM.

A further assay deals with DMS 273 small cell lung. The experiment in a line: growth of human tumour cells (NCI), 48 h.
`S=c1[nH]c(=S)c2nnn(-c3ccccc3)c2[nH]1`: the TGI is over 100 µM.
Still for that read-out and setting: to `CNS(=O)(=O)NNS(=O)(=O)c1ccc(Br)cc1` belongs over 100 µM; to `Cc1ccc(NC(=O)CSc2nnc(-c3ccc(N=Cc4ccc(Cl)cc4)cc3)o2)cc1`, over 100 µM.
For `CCC1CCc2c(c(=O)oc3c2cc(OC)c2cccc(OC)c23)C1` (stereo not given), the TGI is over 100 µM.

A further assay has as its system HOP-18 NSCLC. The experiment in a line: growth of human tumour cells (NCI), 48 h.
Consider `CNS(=O)(=O)NNS(=O)(=O)c1ccc(Br)cc1`, for which the TGI is over 100 µM.
Take `Cc1ccc(NC(=O)CSc2nnc(-c3ccc(N=Cc4ccc(Cl)cc4)cc3)o2)cc1`: the TGI was over 100 µM.
Consider `CCC1CCc2c(c(=O)oc3c2cc(OC)c2cccc(OC)c23)C1` (stereo not given), for which the TGI was over 100 µM.

The next assay has as its system KM20L2 colon. The experiment in a line: growth of human tumour cells (NCI), 48 h.
`S=c1[nH]c(=S)c2nnn(-c3ccccc3)c2[nH]1`: the TGI is over 100 µM.
In turn, `CNS(=O)(=O)NNS(=O)(=O)c1ccc(Br)cc1` had a TGI of over 100 µM.
In turn, `Cc1ccc(NC(=O)CSc2nnc(-c3ccc(N=Cc4ccc(Cl)cc4)cc3)o2)cc1` showed a TGI of over 100 µM.
As for `CCC1CCc2c(c(=O)oc3c2cc(OC)c2cccc(OC)c23)C1` (stereo not given), the TGI is over 100 µM.

In another assay the test system is LXFL 529 NSCLC. The experiment in a line: growth of human tumour cells (NCI), 48 h.
`S=c1[nH]c(=S)c2nnn(-c3ccccc3)c2[nH]1` gave a TGI of over 100 µM.
`CNS(=O)(=O)NNS(=O)(=O)c1ccc(Br)cc1` returned a TGI of over 100 µM.
The compound `Cc1ccc(NC(=O)CSc2nnc(-c3ccc(N=Cc4ccc(Cl)cc4)cc3)o2)cc1` displayed a TGI of over 100 µM.
On the same count and under the same terms, to `CCC1CCc2c(c(=O)oc3c2cc(OC)c2cccc(OC)c23)C1` (stereo not given) belongs over 100 µM.

The subject of a further assay is M19-MEL melanoma. The experiment in a line: growth of human tumour cells (NCI), 48 h.
`S=c1[nH]c(=S)c2nnn(-c3ccccc3)c2[nH]1` returned a TGI of over 100 µM.
`CNS(=O)(=O)NNS(=O)(=O)c1ccc(Br)cc1` displayed a TGI of over 100 µM.
Still for that read-out and setting: the same measure for `Cc1ccc(NC(=O)CSc2nnc(-c3ccc(N=Cc4ccc(Cl)cc4)cc3)o2)cc1`: over 100 µM; for `CCC1CCc2c(c(=O)oc3c2cc(OC)c2cccc(OC)c23)C1` (stereo not given): over 100 µM.

Another assay has as its system RXF-631 renal. As to the kind of experiment: growth of human tumour cells (NCI), 48 h.
`CNS(=O)(=O)NNS(=O)(=O)c1ccc(Br)cc1` came in with a TGI of over 100 µM.

Another assay deals with XF 498 CNS. The experiment in a line: growth of human tumour cells (NCI), 48 h.
As to `S=c1[nH]c(=S)c2nnn(-c3ccccc3)c2[nH]1`, the TGI is over 100 µM.
On to `CNS(=O)(=O)NNS(=O)(=O)c1ccc(Br)cc1`, for which the TGI was over 100 µM.
As to `Cc1ccc(NC(=O)CSc2nnc(-c3ccc(N=Cc4ccc(Cl)cc4)cc3)o2)cc1`, the TGI is over 100 µM.
Same read-out and setting: to `CCC1CCc2c(c(=O)oc3c2cc(OC)c2cccc(OC)c23)C1` (stereo not given) belongs 78.6 µM.
